{"source": "ChEMBL document CHEMBL4706559", "about": "“New indolylarylsulfone non-nucleoside reverse transcriptase inhibitors show low nanomolar inhibition of single and double HIV-1 mutant strains” (Eur J Med Chem, 2020)", "key": {"[1]": {"tested_on": "Human immunodeficiency virus 1", "experiment": "Antiviral activity against wild type HIV-1 P1 infected in human C8166 cells assessed as reduction in viral RNA production at 25 nM", "assay_type": "functional", "settings": "Human immunodeficiency virus 1, P1, C8166"}, "[2]": {"tested_on": "Human immunodeficiency virus 1", "experiment": "Binding affinity to free form of HIV-1 p66/p51 reverse transcriptase K103N/Y181C double mutant assessed as dissociation constant using poly(rA)/oligo(dT) as templates in presence of [3H]dTTP"}, "[3]": {"molecular_target": "Human immunodeficiency virus type 1 reverse transcriptase (Human immunodeficiency virus 1) (UniProt Q72547)", "experiment": "Ratio of Kon of wild type HIV-1 p66/p51 reverse transcriptase/nucleic acid binary complex to Kon of free form of wild type HIV-1 p66/p51 reverse transcriptase using poly(rA)/oligo(dT) as templates in presence of [3H]dTTP"}, "[4]": {"tested_on": "Human immunodeficiency virus 1", "experiment": "Antiviral activity against wild type HIV-1 P1 infected in human C8166 cells assessed as reduction in viral p24 antigen production at 25 nM", "assay_type": "functional", "settings": "Human immunodeficiency virus 1, P1, C8166"}, "[5]": {"molecular_target": "Human immunodeficiency virus type 1 reverse transcriptase (Human immunodeficiency virus 1, UniProt Q72547, K103N)", "experiment": "Inhibition of RNA-dependent DNA polymerase activity of recombinant HIV-1 p66/p51 reverse transcriptase K103N mutant assessed as inhibition of [3H]dTTP incorporation using poly(rA)/oligo(dT) as templates incubated for 15 mins by MicroBeta scintillation counting method"}, "[6]": {"tested_on": "Human immunodeficiency virus 1", "experiment": "Inhibition of HIV1 p66/p51 reverse transcriptase K103N/Y181C double mutant assessed as apparent Km of substrate at 300 nM using fixed concentration of poly(rA)/oligo(dT) as templates in presence of 2 to 100 uM of [3H]dTTP by Michaelis-Menten analysis (reference value: 9.2 +/- 1.4 uM)"}, "[7]": {"tested_on": "Human immunodeficiency virus 1", "experiment": "Synergistic inhibition of HIV-1 p66/p51 reverse transcriptase K103N/Y181C double mutant assessed as combination index using poly(rA)/oligo(dT) as templates in presence of [3H]dTTP preincubated enzyme with nucleic acid followed by addition of AZTTP and subsequent incubation with compound and dTTP"}, "[8]": {"tested_on": "Human immunodeficiency virus 1", "experiment": "Inhibition of HIV1 p66/p51 reverse transcriptase K103N/Y181C double mutant assessed as apparent Km of substrate at 75 nM using […] as templates in presence of fixed concentration of [3H]dTTP by Michaelis-Menten analysis (reference value: 106+/- 16 nM)"}, "[9]": {"tested_on": "Human immunodeficiency virus 1", "experiment": "Inhibition of HIV1 p66/p51 reverse transcriptase K103N/Y181C double mutant assessed as apparent Km of substrate at 150 nM using […] as templates in presence of fixed concentration of [3H]dTTP by Michaelis-Menten analysis (reference value: 106+/- 16 nM)"}, "[10]": {"tested_on": "Human immunodeficiency virus 1", "experiment": "Binding affinity to HIV-1 p66/p51 reverse transcriptase K103N/Y181C double mutant/nucleic acid binary complex assessed as association constant using poly(rA)/oligo(dT) as templates in presence of [3H]dTTP"}, "[11]": {"molecular_target": "Human immunodeficiency virus type 1 reverse transcriptase (Human immunodeficiency virus 1) (UniProt Q72547)", "experiment": "Inhibition of wild type HIV1 p66/p51 reverse transcriptase assessed as apparent Vmax at 90 nM using fixed concentration of poly(rA)/oligo(dT) as templates in presence of 2 to 100 uM of [3H]dTTP by Michaelis-Menten analysis (reference value: 9.7 +/- 12%)"}}, "note": "pIC50: −log10 of the molar value.", "data": [{"smiles": "Cc1cc(C)cc(S(=O)(=O)c2c(C(=O)NCc3ccccc3O)[nH]c3ccc(Cl)cc23)c1", "values": [{"measurement": "inhibition at 0.025 µM", "setting": "[1]", "value": 100, "unit": "%"}, {"measurement": "K", "setting": "[2]", "value": "14 10^-3/s"}, {"measurement": "Ratio", "setting": "[3]", "value": 7}, {"measurement": "inhibition at 0.025 µM", "setting": "[4]", "value": 100, "unit": "%"}, {"measurement": "pIC50", "setting": "[5]", "value": 7.14}, {"measurement": "Km", "setting": "[6]", "value": 1.9, "unit": "µM"}, {"measurement": "CI", "setting": "[7]", "value": 0.6}, {"measurement": "Km", "setting": "[8]", "value": 0.108, "unit": "µM"}, {"measurement": "Km", "setting": "[9]", "value": 0.125, "unit": "µM"}, {"measurement": "K", "setting": "[10]", "value": "10 10^-5/nM/s"}, {"measurement": "Vmax(app)", "setting": "[11]", "value": 2.9, "unit": "%"}]}]}
